The results in this text go back to ChEMBL document CHEMBL1137977, “HCV NS5B polymerase-bound conformation of a soluble sulfonamide inhibitor by 2D transferred NOESY” (Bioorg Med Chem Lett, 2004).

SMILES strings stand for the structures.

Chain of RNA-directed RNA polymerase (O39930 whole entry): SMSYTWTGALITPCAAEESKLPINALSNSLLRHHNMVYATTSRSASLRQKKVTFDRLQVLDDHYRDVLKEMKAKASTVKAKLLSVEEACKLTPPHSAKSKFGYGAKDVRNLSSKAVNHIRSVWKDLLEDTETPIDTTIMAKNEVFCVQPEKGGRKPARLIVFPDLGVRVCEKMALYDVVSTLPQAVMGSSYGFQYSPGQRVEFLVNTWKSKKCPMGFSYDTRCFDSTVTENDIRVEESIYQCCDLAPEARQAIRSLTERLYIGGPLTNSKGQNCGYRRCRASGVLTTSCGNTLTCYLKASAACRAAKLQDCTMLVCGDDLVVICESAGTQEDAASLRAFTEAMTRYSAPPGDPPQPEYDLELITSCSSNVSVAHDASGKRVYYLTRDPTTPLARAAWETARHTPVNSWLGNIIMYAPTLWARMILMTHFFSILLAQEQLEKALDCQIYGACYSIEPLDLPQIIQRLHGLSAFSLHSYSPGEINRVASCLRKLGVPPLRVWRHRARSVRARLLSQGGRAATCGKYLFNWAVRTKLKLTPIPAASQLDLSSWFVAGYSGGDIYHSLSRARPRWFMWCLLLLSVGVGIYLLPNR

The test has as its target RNA-directed RNA polymerase (Hepacivirus hominis, UniProt O39930). The test is described as follows: Inhibitory concentration for NS5B RNA-dependent RNA polymerase of Hepatitis C virus.
For `Cc1cc(S(=O)(=O)Nc2cc(-c3ccccc3)sc2C(=O)O)c(C)cc1Cl`, half-maximal inhibition (IC50) required 5 µM.
With `O=C(O)c1sc(-c2ccccc2)cc1NS(=O)(=O)c1ccccn1` the figure was 25 µM; with `Cc1ccccc1S(=O)(=O)Nc1cc(-c2ccncc2)sc1C(=O)O`, 4 µM.
With `O=C(O)c1sc(-c2ccccc2)cc1NS(=O)(=O)c1ccc(C(F)(F)F)cn1` the figure was 15 µM; with `Cc1cc(S(=O)(=O)Nc2cc(-c3ccccc3)sc2C(N)=O)c(C)cc1Cl`, 14 µM; with `O=C(O)c1sc(-c2ccc(F)cc2)cc1NS(=O)(=O)c1ccccn1`, 4 µM.

The term IC50 denotes the concentration that gives 50% inhibition. Lower therefore signals greater potency in that assay.
